# ChEMBL document CHEMBL1152527, “Tessaric acid derivatives induce G2/M cell cycle arrest in human solid tumor cell lines” (2009)
# Activity calls are given as the source filed them. The calls are words filed in the database; no cut-off is given here.
# How the values were obtained:
# Format in all cases: functional
# [1] = system: WiDr; assay: Growth inhibition of human WiDr cells after 48 hrs by sulforhodamine B assay
# [2] = system: T47D; assay: Growth inhibition of human T47D cells after 48 hrs by sulforhodamine B assay
# [3] = system: HBL-100; assay: Growth inhibition of human HBL100 cells after 48 hrs by sulforhodamine B assay; conditions: HBL-100, 48 h
# [4] = system: SW1573; assay: Growth inhibition of human SW1573 cells after 48 hrs by sulforhodamine B assay; conditions: SW1573, 48 h
# [5] = system: A2780; assay: Growth inhibition of human A2780 cells after 48 hrs by sulforhodamine B assay; conditions: A2780, 48 h
# [6] = system: HeLa; assay: Growth inhibition of human HeLa cells after 48 hrs by sulforhodamine B assay
# [7] = system: SW1573; assay: Cell cycle arrest in human SW1573 cells assessed as minor accumulation at G2/M phase at 5 to 20 uM after 24 hrs by propidium iodide staining-based FACS analysis
# [8] = system: T47D; assay: Cell cycle arrest in human T47D cells assessed as minor accumulation at G2/M phase at 5 to 20 uM after 24 hrs by propidium iodide staining-based FACS analysis
# [9] = system: T47D; assay: Cell cycle arrest in human T47D cells assessed as minor accumulation at S phase at 5 to 20 uM after 24 hrs by propidium iodide staining-based FACS analysis
# [10] = system: WiDr; assay: Cell cycle arrest in human WiDr cells assessed as minor accumulation at S phase at 5 to 20 uM after 24 hrs by propidium iodide staining-based FACS analysis
# [11] = system: HeLa; assay: Cell cycle arrest in human HeLa cells assessed as minor accumulation at S phase at 5 to 20 uM after 24 hrs by propidium iodide staining-based FACS analysis
# [12] = system: SW1573; assay: Cell cycle arrest in human SW1573 cells assessed as minor accumulation at S phase at 5 to 20 uM after 24 hrs by propidium iodide staining-based FACS analysis
# [13] = system: HeLa; assay: Cell cycle arrest in human HeLa cells assessed as minor accumulation at G2/M phase at 5 to 20 uM after 24 hrs by propidium iodide staining-based FACS analysis
# [14] = system: WiDr; assay: Cell cycle arrest in human WiDr cells assessed as minor accumulation at G2/M phase at 5 to 20 uM after 24 hrs by propidium iodide staining-based FACS analysis
# [15] = system: T47D; assay: Cell cycle arrest in human T47D cells assessed as decrease in accumulation at S phase at 6 uM after 24 hrs by propidium iodide staining-based FACS analysis
# [16] = system: HeLa; assay: Cell cycle arrest in human HeLa cells assessed as accumulation at G2/M phase at 3 uM after 24 hrs by propidium iodide staining-based FACS analysis
# [17] = system: SW1573; assay: Cell cycle arrest in human SW1573 cells assessed as accumulation at S phase at 6 uM after 24 hrs by propidium iodide staining-based FACS analysis
# [18] = system: HeLa; assay: Cell cycle arrest in human HeLa cells assessed as decrease in accumulation at S phase at 3 uM after 24 hrs by propidium iodide staining-based FACS analysis
# [19] = system: WiDr; assay: Cell cycle arrest in human WiDr cells assessed as decrease in accumulation at S phase at 6 uM after 24 hrs by propidium iodide staining-based FACS analysis
# [20] = system: SW1573; assay: Cell cycle arrest in human SW1573 cells assessed as decrease in accumulation at S phase at 3 uM after 24 hrs by propidium iodide staining-based FACS analysis
# [21] = system: SW1573; assay: Cell cycle arrest in human SW1573 cells assessed as accumulation at G2/M phase at 6 uM after 24 hrs by propidium iodide staining-based FACS analysis
# [22] = system: SW1573; assay: Cell cycle arrest in human SW1573 cells assessed as accumulation at G2/M phase at 3 uM after 24 hrs by propidium iodide staining-based FACS analysis
# [23] = system: SW1573; assay: Cell cycle arrest in human SW1573 cells assessed as decrease in accumulation at G0/G1 phase at 6 uM after 24 hrs by propidium iodide staining-based FACS analysis
# [24] = system: HeLa; assay: Cell cycle arrest in human HeLa cells assessed as accumulation at G2/M phase at 6 uM after 24 hrs by propidium iodide staining-based FACS analysis
# [25] = system: T47D; assay: Cell cycle arrest in human T47D cells assessed as increase in accumulation at sub G0 phase at 3 to 6 uM treated for 24 hrs measured after 24 hrs of drug washout by propidium iodide staining-based FACS analysis
# [26] = system: HeLa; assay: Cell cycle arrest in human HeLa cells assessed as decrease in accumulation at G0/G1 phase at 6 uM after 24 hrs by propidium iodide staining-based FACS analysis
# [27] = system: T47D; assay: Cell cycle arrest in human T47D cells assessed as accumulation at G2/M phase at 6 uM after 24 hrs by propidium iodide staining-based FACS analysis
# [28] = system: WiDr; assay: Cell cycle arrest in human WiDr cells assessed as increase in accumulation at sub G0 phase at 3 to 6 uM treated for 24 hrs measured after 24 hrs of drug washout by propidium iodide staining-based FACS analysis
# [29] = system: WiDr; assay: Cell cycle arrest in human WiDr cells assessed as accumulation at G2/M phase at 6 uM after 24 hrs by propidium iodide staining-based FACS analysis
# [30] = system: HeLa; assay: Cell cycle arrest in human HeLa cells assessed as accumulation at S phase at 6 uM after 24 hrs by propidium iodide staining-based FACS analysis
smiles,measurement,setting,value
C=C(C(=O)O)[C@@H]1CC[C@@]2(C)CCCC(C)=C2C1,pGI50,[1],4
same,GI50,[1]; read-out: GI50,> 100 µM
same,pGI50,[2],4
same,GI50,[2]; read-out: GI50,> 100 µM
same,pGI50,[3],4
same,GI50,[3]; read-out: GI50,> 100000 nM
same,pGI50,[4],4
same,GI50,[4]; read-out: GI50,> 100 µM
same,pGI50,[5],4
same,GI50,[5]; read-out: GI50,> 100000 nM
same,pGI50,[6],4
same,GI50,[6]; read-out: GI50,> 100 µM
C=C(C=O)[C@@H]1CC[C@@]2(C)CCC[C@@](C)(O)[C@@H]2C1 [ILICIC ALDEHYDE],GI50,[1]; read-out: GI50,12 µM
same,GI50,[1]; read-out: pGI50 (converted),4.92 µM
same,Activity,[7],Active
same,Activity,[8],Active
same,Activity,[9],Active
same,Activity,[10],Active
same,Activity,[11],Active
same,Activity,[12],Active
same,GI50,[2]; read-out: GI50,6.5 µM
same,GI50,[2]; read-out: pGI50 (converted),5.19 µM
same,Activity,[13],Active
same,GI50,[3]; read-out: GI50,2800 nM
same,GI50,[3]; read-out: pGI50 (converted),5560 nM
same,Activity,[14],Active
same,pGI50,[4],5.72
same,GI50,[4]; read-out: GI50,2 µM
same,GI50,[5]; read-out: GI50,1800 nM
same,GI50,[5]; read-out: pGI50 (converted),5580 nM
same,GI50,[6]; read-out: GI50,16 µM
same,GI50,[6]; read-out: pGI50 (converted),4.8 µM
CC[C@@]1(O)C(=O)OCc2c1cc1n(c2=O)Cc2cc3ccccc3nc2-1 [CAMPTOTHECIN],GI50,[1]; read-out: GI50,1.7 µM
same,GI50,[2]; read-out: GI50,1.9 µM
same,GI50,[3]; read-out: GI50,230 nM
same,GI50,[4]; read-out: GI50,0.21 µM
same,GI50,[5]; read-out: GI50,460 nM
same,GI50,[6]; read-out: GI50,1.3 µM
C=C(C(=O)O)[C@@H]1CCC2=CC(=O)C[C@H](C)[C@@]2(C)C1 [TESSARIC ACID],pGI50,[1],4
same,GI50,[1]; read-out: GI50,> 100 µM
same,pGI50,[2],4
same,GI50,[2]; read-out: GI50,> 100 µM
same,pGI50,[3],4
same,GI50,[3]; read-out: GI50,> 100000 nM
same,pGI50,[4],4
same,GI50,[4]; read-out: GI50,> 100 µM
same,pGI50,[5],4
same,GI50,[5]; read-out: GI50,> 100000 nM
same,pGI50,[6],4
same,GI50,[6]; read-out: GI50,> 100 µM
C=C(C(=O)OC)[C@@H]1CCC2=CC(=O)C[C@H](C)[C@@]2(C)C1 [TESSARIC ACID METHYL ESTER],pGI50,[1],5.74
same,GI50,[1]; read-out: GI50,2 µM
same,Activity,[15],Active
same,Activity,[16],Active
same,Activity,[17],Active
same,Activity,[18],Active
same,Activity,[19],Active
same,Activity,[20],Active
same,Activity,[21],Active
same,GI50,[2]; read-out: GI50,2.4 µM
same,GI50,[2]; read-out: pGI50 (converted),5.62 µM
same,Activity,[22],Active
same,Activity,[23],Active
same,pGI50,[3],5.63
same,GI50,[3]; read-out: GI50,2400 nM
same,Activity,[24],Active
same,Activity,[25],Active
same,Activity,[26],Active
same,Activity,[27],Active
same,Activity,[28],Active
same,GI50,[4]; read-out: GI50,3.8 µM
same,GI50,[4]; read-out: pGI50 (converted),5.44 µM
same,pGI50,[5],5.75
same,GI50,[5]; read-out: GI50,1900 nM
same,Activity,[29],Active
same,pGI50,[6],5.35
same,GI50,[6]; read-out: GI50,4.5 µM
same,Activity,[30],Active
C=C(CO)[C@@H]1CC[C@@]2(C)CCC[C@@](C)(O)[C@@H]2C1 [ILICIC ALCOHOL],pGI50,[1],4
same,GI50,[1]; read-out: GI50,> 100 µM
same,pGI50,[2],4
same,GI50,[2]; read-out: GI50,> 100 µM
same,pGI50,[3],4
same,GI50,[3]; read-out: GI50,> 100000 nM
same,pGI50,[4],4
same,GI50,[4]; read-out: GI50,> 100 µM
same,pGI50,[5],4
same,GI50,[5]; read-out: GI50,> 100000 nM
same,pGI50,[6],4
same,GI50,[6]; read-out: GI50,> 100 µM
